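Five compound concentrations were applied to cells in 96-well plates for 48 hours; endpoints were derived by simple linear interpolation of the resulting dose-response curve. GI50: concentration for 50% inhibition of growth.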 Calls of active or inactive are those of the source. Cut-off read from the data, not from the text of the source: active = GI50 up to about 1.1 µM and inactive = higher.
How the values were obtained:
Assay in all cases: NCI-60 cell line screen, 48 h
[1] = system: RPMI-8226
[2] = system: T47D
[3] = system: MDA-MB-435
[4] = system: LOX IMVI
[5] = system: U-251
[6] = system: RXF 393
[7] = system: SN12C
[8] = system: TK-10
[9] = system: UO-31
[10] = system: NCI/ADR-RES
[11] = system: OVCAR-3
[12] = system: HOP-62
[13] = system: BT-549
[14] = system: CCRF-CEM
[15] = system: SW-620
[16] = system: OVCAR-4
[17] = system: SK-MEL-2
[18] = system: NCI-H460
[19] = system: SF-539
[20] = system: HL-60

Measured: GI50

NC(=O)Nc1ccc(S(=O)(=O)Nc2ccc(S(N)(=O)=O)cc2)cc1
inactive: [1] > 100 µM | [2] > 100 µM | [3] > 100 µM | [4] > 100 µM | [5] > 100 µM | [6] > 100 µM | [7] > 100 µM | [8] > 100 µM | [9] > 100 µM | [10] > 100 µM | [11] > 100 µM | [12] > 100 µM | [13] > 100 µM | [14] > 100 µM | [15] > 100 µM | [16] > 100 µM | [17] > 100 µM | [18] > 100 µM

c1ccc(C2=Nn3c(CCCCCCCCc4nnc5n4N=C(c4ccccc4)CS5)nnc3SC2)cc1
inactive: [1] > 100 µM | [2] > 92.9 µM | [3] > 100 µM | [4] 45.4 µM | [5] 15.6 µM | [6] 20.5 µM | [7] > 88.1 µM | [8] 29.2 µM | [9] > 67.3 µM | [19] 3.45 µM | [10] > 79.8 µM | [11] > 100 µM | [12] 17.4 µM | [13] > 57.7 µM | [14] 22.6 µM | [15] > 100 µM | [16] > 100 µM | [17] 32.1 µM | [18] > 100 µM

COc1ccc(-c2cc(-c3cc4cc(Br)ccc4nc3Cl)c(C#N)c(N)n2)cc1
inactive: [1] > 12.5 µM | [2] > 12.5 µM | [20] > 12.5 µM | [3] > 12.5 µM | [4] > 12.5 µM | [6] > 12.5 µM | [7] > 12.5 µM | [9] > 12.5 µM | [19] > 12.5 µM | [10] > 12.5 µM | [11] > 12.5 µM | [12] > 12.5 µM | [13] > 12.5 µM | [14] > 12.5 µM | [15] > 12.5 µM | [16] > 12.5 µM | [17] > 12.5 µM

CCCCCC1=C2C(c3ccc(OC)cc3)=C(N)C(c3ccc(OC)cc3)=C3NC(=O)C(C=C1)C32 (stereo not given)
inactive: [1] 33 µM | [2] 70.1 µM | [20] > 100 µM | [3] 37.3 µM | [4] 33.9 µM | [5] 98.2 µM | [6] 18.9 µM | [7] 74.8 µM | [8] 60.7 µM | [9] 54.3 µM | [10] > 100 µM | [11] 57.1 µM | [12] 21.8 µM | [13] 96.4 µM | [14] 32.6 µM | [15] 49.2 µM | [16] 23.2 µM | [17] > 100 µM | [18] 28.1 µM

Brc1ccc2c3c1[C@@H]1O[C@@H]1c1cccc(c1-3)[C@@H]1O[C@H]21
inactive: [1] 13.1 µM | [2] 15.4 µM | [20] 19.6 µM | [3] 15 µM | [4] 2.21 µM | [5] 17.6 µM | [6] 17.1 µM | [7] 17.3 µM | [8] 41 µM | [9] 15.4 µM | [19] 2.32 µM | [10] 17.4 µM | [11] 19.9 µM | [12] 19.5 µM | [13] 21.1 µM | [14] 5.09 µM | [15] 14.5 µM | [16] 17.9 µM | [17] 23.6 µM

C=CCSc1nn(CC=C)cc2ncnc1-2
inactive: [1] > 100 µM | [2] > 100 µM | [20] > 100 µM | [3] > 100 µM | [5] > 100 µM | [6] > 100 µM | [7] > 100 µM | [8] > 100 µM | [9] > 100 µM | [19] > 100 µM | [10] > 100 µM | [11] > 100 µM | [12] > 100 µM | [13] > 100 µM | [14] > 100 µM | [15] > 100 µM | [17] > 100 µM | [18] > 100 µM

— ChEMBL document CHEMBL1201862, “PubChem BioAssay data set” (2004)
